In ChEMBL document CHEMBL1159059, “Fluoroalkene modification of mercaptoacetamide-based histone deacetylase inhibitors” (Bioorg Med Chem, 2010):

biological target: Histone deacetylase; assay: Inhibition of HDAC in human HeLa cell nuclear extract by fluorescence assay; type: cell-based

| IC50 | Structure (SMILES) |
| --- | --- |
| 360 nM | O=C(CCCCC/C=C(\F)CS)Nc1ccccc1 |
| 510 nM | O=C(CCCC/C=C(\F)CS)Nc1ccccc1 |
| 290 nM | O=C(NCCCCC/C=C(\F)CS)c1ccccc1 |
